The values that follow come from publication PMC9229894, “In Silico, In Vitro, and Pharmacokinetic Studies of UBMC-4, a Potential Novel Compound for Treating against Trypanosoma cruzi” (Pathogens, 2022).

“Also recorded” adds a separate entry of the source. Where two headings read alike, the source gives them in different places. A value given as a limit tells only on which side of the number the result lay.

Data set [1] deals with T. cruzi Tulahuen strain amastigotes. Put plainly: Trypanocidal activity in intracellular amastigotes (β-galactosidase, U937 macrophages). The format is cell-based, Trypanosoma cruzi. To be noted: Trypanosoma cruzi. Here is the method: To obtain intracellular amastigotes, 2.5 × 10^6 U937 differentiated macrophage cells were infected with T. cruzi epimastigotes (Tulahuen strain producing β-galactosidase, 24 h of growing) in a 5:1 parasite/cell ratio. To calculate EC50, 100 μL of UBMC-4 were added at four serial dilutions ([…]) to each well, and benznidazole (bz) was added at an initial concentration of 20 µg/mL and 6 serial 2-fold dilutions were used to determine its EC50 as a control of the effectiveness of the experiment, in addition to the control of the viability of the parasites (cells without drug treatment), from the blank of the culture medium (medium without cells), in duplicate. The cells were incubated for 72 h at 37 °C with 5% of CO2. All medium was removed and 100 µL of substrate for β-galactosidase diluted in PBS (chlorophenol β-d-galactopyranoside-CPRG network; Sigma-Aldrich, St Louis, MO, USA, at 100 mM and 0.1% Nonidet P-40) was added to each well and incubated at 37 °C for 3 h. The amount of chlorophenol red released was read at 570 nm in a spectrophotometer (Varioskan TM). Infected cells were used as negative control while infected cells treated with benznidazole were used as a positive control (trypanocidal activity) for the assay. RPMI-1640 medium was used as a negative control. Non-specific absorbance was corrected by subtracting the OD of the blank sample. Determinations were done in triplicate in at least two independent experiments.
The trypanocidal activity was determined based on the percentage of decrease of amastigotes determined using equation, as follows: % reduction of infection = 100 − (O.D. of treated infected cells)/(O.D. of non-treated infected cells) × 100. The half maximal effective concentration (EC50) was calculated by the linear regression model Probit using Graphpad Prism software.

A short description of data set [2]: Cytotoxicity, MTT method, HepG2. Format: cell-based. To be noted: human, HepG2 cells, read-out: LC50 median lethal concentration HepG2. Here is the method: Cytotoxicity of UBMC-4 was tested in HepG2, CaCo2, and huMDM cell lines according to the effect on cell growth determined by the MTT microenzimatic method, as described by others. Briefly, 2.0 × 10^4 U-937 and huMDM or 2.5 × 10^4 HepG2 and CaCo2 cells were dispensed in 200 µL into each well of a 96-well tissue culture plate containing the corresponding culture medium. Then, 100 µL/well of each compound at a concentration of […] were added and plates were incubated at 37 °C, 5% CO2. After 72 h of incubation, 20 μL of MTT (Sigma-Aldrich, St Louis, MO, USA) were added to each well and plates were incubated for 3 h at 37 °C, 5% CO2. […] The concentration of formazan was determined at 570 nm in a spectrophotometer (Varioskan Flash Multimode Reader, Thermo Scientific, Waltham, MA, USA). […] Cytotoxicity was determined according to the percentages of viability and cell growth inhibition obtained for each compound, bz, doxorubicin, or medium alone. Non-specific absorbance was corrected by subtracting the OD of the blank (culture medium). Percentages of mortality were calculated using equation, as follows: % mortality = 100 − [(O.D. of treated cells)/(O.D. of non-treated cells)] × 100. The half maximal effective concentration (EC50) was calculated by the linear regression model Probit using Graphpad Prism software.
Background: Formazan colour is commonly taken as a measure of viable cells.

A further data set concerns T. cruzi epimastigotes. Briefly: Scanning and transmission electron microscopy of epimastigotes under nutritional stress. Format: cell-based, Trypanosoma cruzi. Conditions: 10 µM, nutritional stress (PBS) 6 h. Here is the method:
Epimastigotes untreated and treated with 10 uM of UBMC-4 under nutritional stress conditions (culture medium substitution for PBS for 6 h) were fixed for 2 h using 2.5% glutaraldehyde in cacodylate buffer 0.1 M. Parasites adhered for 10 min onto coverslips previously coated with 0.1% poly-L-lysin and subsequently washed with cacodylate buffer and dehydrated using 30%, 50%, 70%, and 90% (v/v) acetone for 5 min on each incubation. Subsequently, the cells were critically dried under CO2 and attached to the heel of the SEM instrument. Finally, samples were coated with a 20 nm-thick gold layer and analyzed in a Jeol JSM6010Plus-LA scanning electron microscope at 20 kV. For TEM, parasites were fixed for 2 h with glutaraldehyde and cacodylate buffer and then treated for 1 h with 1% OsO4 diluted in the same buffer. Parasites were dehydrated as above and then embedded in PolyBed-812 resin. Ultrathin sections were collected in copper grids and stained with 5% aqueous uranyl acetate and lead citrate. Samples were examined in a Jeol JEM-1400plus transmission electron microscope at 80 kV.

A further data set relates to T. cruzi trypomastigotes. Put plainly: Morphological changes of trypomastigotes incubated with UBMC-4 (data not shown). The format is cell-based, Trypanosoma cruzi. Conditions: 10 µM.

`Oc1ccc(-c2nc(-c3ccc4sc5ccccc5c4c3)c(-c3ccccc3)[nH]2)cc1` [UBMC-4, 4-(4-dibenzo-[b,d]-thien-2-yl-5-phenyl-1H-imidazol-2-yl)phenol]: the EC50 in data set [1] (TULAHUEN, U-937, 72 h, read-out: EC50 half maximal effective concentration for T. cruzi amastigotes) is 1.85 ± 1 µM; in data set [1] (U-937, intracellular amastigotes, Tulahuen strain, same value in mass units, read-out: EC50 for T. cruzi amastigotes) it was 0.774 µg/mL. Besides, the CC50 at 72 h in data set [2] is over 40 µM. Besides, the “morphology and ultra-structure changes (SEM, TEM)” value with T. cruzi epimastigotes is reported as “progressive alterations such as flagellum inactivation, cell size reduction, nuclear structure alteration, condensation of chromatin towards the nuclear periphery, vacuole formation, mitochondrial swelling with kinetoplast integrity loss; also recorded: non-reversible morphological damage”. Further, in the data set with T. cruzi trypomastigotes, the “morphological changes of trypomastigotes” value is given as “much faster progressive morphological changes within the hour”.
